Tests used:
Format in all cases: in vivo
[1] = test system: western flower thrips (Frankliniella occidentalis); experiment: Test E: control of western flower thrips on Soleil bean plant, contact and/or systemic; conditions: held 6 days
How it was run: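 5–7-day-old Soleil bean plants were sprayed at 250 or 50 ppm in 10% acetone/90% water with 300 ppm X-77 surfactant, three replicates. After drying 1 h, 22–27 adult thrips were added per unit. Mortality and plant damage were rated after 6 days at 25 °C and 45–55% RH.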

[2] = test system: fall armyworm (Spodoptera frugiperda); experiment: Test B: control of fall armyworm on corn (maize) plant, foliar spray; conditions: sprayed at 50 ppm
How it was run: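 4-5-day-old corn plants pre-infested with 10-15 1-day-old larvae on insect diet, then sprayed with compound at 50 ppm in 10% acetone/90% water with 300 ppm surfactant, three replicates. Held 6 days at 25° C, 70% RH; feeding damage assessed visually and mortality rated.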

[3] = test system: diamondback moth (Plutella xylostella); experiment: Test A: control of diamondback moth on radish plant, foliar spray; conditions: sprayed at 50 ppm, held 6 days
How it was run: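 Radish plants 12–14 days old, pre-infested with about 50 neonate larvae, sprayed at 50 ppm in 10% acetone/water with 300 ppm X-77 surfactant; three replicates. After 6 days at 25° C and 70% RH, feeding damage was scored visually and mortality counted.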

Measured: levels of control efficacy (20% or less feeding damage or 80% or more mortality)

O=C(CNC(=O)c1ccc(C2=NOC(c3cc(F)cc(C(F)(F)F)c3)(C(F)(F)F)C2)c2ccccc12)NCC(F)(F)F (racemic) [Compound 135]
very good to excellent: [1]; sprayed at 250 ppm | [2] | [3]

CC(NC(=O)c1ccc(C2=NOC(c3cc(F)cc(C(F)(F)F)c3)(C(F)(F)F)C2)c2ccccc12)C(=O)NCC(F)(F)F (mixture of isomers) [Compound 139]
very good to excellent: [1]; sprayed at 50 ppm | [2] | [3]

O=C(CNC(=O)c1ccc(C2=NOC(c3cc(Cl)cc(OC(F)(F)F)c3)(C(F)(F)F)C2)c2ccccc12)NCC(F)(F)F (racemic) [Compound 136]
very good to excellent: [1]; sprayed at 50 ppm | [2] | [3]

CCNC(=O)C(C)NC(=O)c1ccc(C2=NOC(c3cc(Br)cc(C(F)(F)F)c3)(C(F)(F)F)C2)c2ccccc12 (mixture of isomers) [Compound 142]
very good to excellent: [1]; sprayed at 50 ppm | [2] | [3]

CC(C)CNC(=O)C(C)NC(=O)c1ccc(C2=NOC(c3cc(C(F)(F)F)cc(C(F)(F)F)c3)(C(F)(F)F)C2)c2ccccc12 (mixture of isomers) [Compound 93]
very good to excellent: [1]; sprayed at 50 ppm | [2] | [3]

CSCCCNC(=O)c1ccc(C2=NOC(c3cc(Cl)cc(Cl)c3)(C(F)(F)F)C2)c2ccccc12 (stereo not shown) [Compound 22]
very good to excellent: [1]; sprayed at 50 ppm | [1]; sprayed at 250 ppm | [2] | [3]

CSCCNC(=O)c1ccc(C2=NOC(c3cc(Cl)cc(C(F)(F)F)c3)(C(F)(F)F)C2)c2ccccc12 (stereo not shown) [Compound 65]
very good to excellent: [1]; sprayed at 50 ppm | [1]; sprayed at 250 ppm | [2] | [3]

CNC(=O)C(C)NC(=O)c1ccc(C2=NOC(c3cc(C(F)(F)F)cc(C(F)(F)F)c3)(C(F)(F)F)C2)c2ccccc12 (stereo not shown) [Compound 86]
very good to excellent: [1]; sprayed at 50 ppm | [1]; sprayed at 250 ppm | [2] | [3]

CS(=O)(=O)CCNC(=O)c1ccc(C2=NOC(c3cc(Cl)cc(Cl)c3)(C(F)(F)F)C2)c2ccccc12 (stereo not shown) [Compound 20]
very good to excellent: [1]; sprayed at 50 ppm | [1]; sprayed at 250 ppm | [2] | [3]

CC(CO)NC(=O)c1ccc(C2=NOC(c3cccc(C(F)(F)F)c3)(C(F)(F)F)C2)c2ccccc12 (mixture of isomers) [Compound 41]
very good to excellent: [1]; sprayed at 50 ppm | [1]; sprayed at 250 ppm | [2] | [3]

CCNC(=O)C(C)NC(=O)c1ccc(C2=NOC(c3cc(C(F)(F)F)cc(C(F)(F)F)c3)(C(F)(F)F)C2)c2ccccc12 (mixture of isomers) [Compound 96]
very good to excellent: [1]; sprayed at 250 ppm | [2] | [3]

CC(C)NC(=O)CNC(=O)c1ccc(C2=NOC(c3cc(Cl)cc(C(F)(F)F)c3)(C(F)(F)F)C2)c2ccccc12 (stereo not shown) [Compound 63]
very good to excellent: [1]; sprayed at 50 ppm | [1]; sprayed at 250 ppm | [2] | [3]

CSCCNC(=O)c1ccc(C2=NOC(c3cc(Cl)cc(Cl)c3)(C(F)(F)F)C2)c2ccccc12 (stereo not shown) [Compound 17]
very good to excellent: [1]; sprayed at 50 ppm | [1]; sprayed at 250 ppm | [2] | [3]

O=C(CNC(=O)c1ccc(C2=NOC(c3cc(Cl)c(Cl)c(Cl)c3)(C(F)(F)F)C2)c2ccccc12)NCC(F)(F)F (stereo not shown) [Compound 19]
very good to excellent: [1]; sprayed at 50 ppm | [1]; sprayed at 250 ppm | [2] | [3]

CC(C)(C)CNC(=O)CNC(=O)c1ccc(C2=NOC(c3cc(C(F)(F)F)cc(C(F)(F)F)c3)(C(F)(F)F)C2)c2ccccc12 (stereo not shown) [Compound 103]
very good to excellent: [1]; sprayed at 50 ppm | [2] | [3]

CC(NC(=O)c1ccc(C2=NOC(c3cc(C(F)(F)F)cc(C(F)(F)F)c3)(C(F)(F)F)C2)c2ccccc12)C(=O)NCC(C)(C)C (mixture of isomers) [Compound 124]
very good to excellent: [1]; sprayed at 250 ppm | [2] | [3]

COCCNC(=O)c1ccc(C2=NOC(c3cc(Cl)cc(Cl)c3)(C(F)(F)F)C2)c2ccccc12 (stereo not shown) [Compound 28]
very good to excellent: [1]; sprayed at 50 ppm | [1]; sprayed at 250 ppm | [2] | [3]

CCCNC(=O)CNC(=O)c1ccc(C2=NOC(c3cc(Cl)cc(C(F)(F)F)c3)(C(F)(F)F)C2)c2ccccc12 (stereo not shown) [Compound 117]
very good to excellent: [1]; sprayed at 50 ppm | [1]; sprayed at 250 ppm | [2] | [3]

CC(C)CNC(=O)CNC(=O)c1ccc(C2=NOC(c3cc(C(F)(F)F)cc(C(F)(F)F)c3)(C(F)(F)F)C2)c2ccccc12 (stereo not shown) [Compound 102]
very good to excellent: [1]; sprayed at 50 ppm | [2] | [3]

CCNC(=O)CNC(=O)c1ccc(C2=NOC(c3cc(Cl)cc(C(F)(F)F)c3)(C(F)(F)F)C2)c2ccccc12 (stereo not shown) [Compound 119]
very good to excellent: [1]; sprayed at 50 ppm | [1]; sprayed at 250 ppm | [2] | [3]

CSCCC(C)NC(=O)c1ccc(C2=NOC(c3cc(Cl)cc(Cl)c3)(C(F)(F)F)C2)c2ccccc12 (stereo not shown) [Compound 26]
very good to excellent: [1]; sprayed at 50 ppm | [1]; sprayed at 250 ppm | [2] | [3]

CCS(=O)(=O)CCNC(=O)c1ccc(C2=NOC(c3cc(C(F)(F)F)cc(C(F)(F)F)c3)(C(F)(F)F)C2)c2ccccc12 (stereo not shown) [Compound 99]
very good to excellent: [1]; sprayed at 50 ppm | [2] | [3]

COCC(C)NC(=O)c1ccc(C2=NOC(c3cccc(C(F)(F)F)c3)(C(F)(F)F)C2)c2ccccc12 (mixture of isomers) [Compound 47]
very good to excellent: [1]; sprayed at 50 ppm | [1]; sprayed at 250 ppm | [2] | [3]

Source: patent publication US8410153B2, “Naphthalene isoxazoline invertebrate pest control agents” (E.I. du Pont de Nemours and Company, priority 2007, dated 2013)
